Results reported in US20260137706A1, “METHODS OF TREATING INFLAMMATORY DISEASES” (INTERLINE THERAPEUTICS, INC., priority 2023, published 2026).

Assays:
[1] = target: T1, GST-RIPK2 fusion protein (human RIPK2, amino acids 1-310) (Homo sapiens, UniProt O43353); assay: RIPK2 binding competition assay (TR-FRET, Tracer 199 displacement); conditions: 10 nM Tracer 199, 1 nM GST-RIPK2, read-out: RIPK2 IC50
T1 construct: made in house; host or cells: baculovirus infected Sf9 cells
Procedure, shortened: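 GST-RIPK2 (human aa 1-310, Sf9-expressed; final 1 nM) with Tracer 199 (final 10 nM) and Tb-anti-GST (final 0.5 nM) in Tris pH 7.5 buffer, 45 min at 22 °C. TR-FRET 665/620 nm ratio after 337 nm excitation; normalized to no-inhibitor (0%) and no-protein (−100%), giving IC50.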

[2] = system: NF-κB pathway (SEAP) in THP1-Dual cells; assay: THP-1 Dual cell SEAP assay (L18-MDP stimulated); assay type: cell-based; conditions: Homo sapiens, THP1-Dual, read-out: NF-κB THP1 IC50 bin
Procedure, shortened: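 THP1-Dual cells (~25,000/well) were preincubated 30 min with serially diluted compounds, then stimulated with 10 ng/mL L18-MDP (final) for 20-24 h at 37 °C. Supernatant SEAP was read with QUANTI-Blue at OD 620-655 nm after 2 h. IC50 came from non-linear fits of % inhibition versus DMSO/L18-MDP controls after media-blank subtraction.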

[3] = target: T2, binding of His-XIAP(BIR2)-avi fusion protein to GST-RIPK2 fusion protein (RIPK2/XIAP) (Homo sapiens, UniProt O43353); assay: RIPK2-XIAP binding competition PPI assay (TR-FRET); conditions: RIPK2/XIAP binding competition PPI assay; for Emax: Amax, read-out: PPI Amax bin; for IC50: read-out: PPI IC50 bin
T2 construct: made in house; host or cells: baculovirus infected Sf9 cells
T2 sequence (O43353 1-310 limits assumed): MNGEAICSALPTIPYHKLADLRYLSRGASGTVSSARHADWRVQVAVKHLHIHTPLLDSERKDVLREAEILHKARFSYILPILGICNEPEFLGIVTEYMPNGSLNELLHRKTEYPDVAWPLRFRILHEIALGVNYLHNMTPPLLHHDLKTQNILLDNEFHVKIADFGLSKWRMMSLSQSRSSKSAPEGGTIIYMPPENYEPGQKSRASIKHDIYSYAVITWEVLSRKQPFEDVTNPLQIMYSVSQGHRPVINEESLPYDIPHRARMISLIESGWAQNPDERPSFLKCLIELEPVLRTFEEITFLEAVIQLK
Procedure, shortened: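 Compounds (in DMSO, 100-fold stock) incubated 120 min at 23 °C with 1 nM GST-RIPK2 (aa 1-310) and 25 nM His-XIAP(BIR2 aa 152-231)-avi, plus anti-His-XL665 and anti-GST-Tb, in pH 7.5 Tris buffer. Read-out: 665/520 nm emission ratio. Normalized to no-inhibitor (0%) and 50 nM GSK583 (−100%); Amax binned A–D.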

T1 sequence (O43353 1-310): as the sequence (O43353 1-310 limits assumed) above

Structure (SMILES) | IC50 [1] [nM] | IC50 [2] [nM] | Emax [3] [%] | IC50 [3] [nM]
CC(C)(C)S(=O)(=O)c1cn2c(-c3cc(Cl)c(N)nc3F)cnc2cc1OCC(F)(F)CN [Example 243, 5-(7-(3-amino-2,2-difluoropropoxy)-6-(tert-butylsulfonyl)imidazo [1,2-a]pyridin-3-yl)-3-chloro-6-fluoropyridin-2-amine] | 1 to 2.5 | 50 to 250 | > 80 | 1 to 2.5
COc1cc2ncc(-c3cc(NS(=O)(=O)c4cnn(C)c4)c(OC)c(OC)c3)n2cc1S(=O)(=O)C(C)(C)C [Example 244, N-(5-(6-(tert-butylsulfonyl)-7-methoxyimidazo[1,2-a]pyridin-3-yl)-2,3-dimethoxyphenyl)-1-methyl-1H-pyrazole-4-sulfonamide] | 1 to 2.5 | < 50 | > 80 | < 1
COc1cc(-c2cnc3cc(OCCO)c(S(=O)(=O)C(C)(C)C)cn23)cc(NS(=O)(=O)c2cnn(C)c2)c1OC [Example 245, N-(5-(6-(tert-butylsulfonyl)-7-(2-hydroxyethoxy)imidazo [1,2-a]pyridin-3-yl)-2,3-dimethoxyphenyl)-1-methyl-1H-pyrazole-4-sulfonamide] | 1 to 2.5 | < 50 | > 80 | < 1
CC(C)(C)S(=O)(=O)c1cc2c(-c3cc(F)c(N)nc3F)cnn2cc1OCC(O)CO (stereo not shown) [Example 246, 3-((3-(6-amino-2,5-difluoropyridin-3-yl)-5-(tert-butylsulfonyl)pyrazolo [1,5-a]pyridin-6-yl)oxy)propane-1,2-diol] | 1 to 2.5 | 50 to 250 | > 80 | 1 to 2.5
CC(C)(C)S(=O)(=O)c1cc2c(-c3cc(Cl)c(N)nc3F)cnn2cc1OCC(O)CO (stereo not shown) [Example 247, 3-((3-(6-amino-5-chloro-2-fluoropyridin-3-yl)-5-(tert-butylsulfonyl)pyrazolo [1,5-a]pyridin-6-yl)oxy)propane-1,2-diol] | 1 to 2.5 | 50 to 250 | > 80 | 1 to 2.5
COc1cc2ncc(-c3cc(F)c(OC)c(NS(=O)(=O)c4cnc(O)nc4)c3)n2cc1S(=O)(=O)C(C)(C)C [Example 248, N-(5-(6-(tert-butylsulfonyl)-7-methoxyimidazo[1,2-a]pyridin-3-yl)-3-fluoro-2-methoxyphenyl)-2-hydroxypyrimidine-5-sulfonamide] | 2.5 to 20 | > 1000 | 55 to 80 | 2.5 to 20
CC(C)(C)S(=O)(=O)c1cn2c(-c3ccc(N)nc3F)cnc2cc1OCCO [Example 249, 2-((3-(6-amino-2-fluoropyridin-3-yl)-6-(tert-butylsulfonyl)imidazo [1,2-a]pyridin-7-yl)oxy)ethan-1-ol] | > 20 | > 1000 | > 80 | > 20
C[C@@H](O)COc1cc2ncc(-c3ccc(N)nc3F)n2cc1S(=O)(=O)C(C)(C)C [Example 250, (R)-1-((3-(6-amino-2-fluoropyridin-3-yl)-6-(tert-butylsulfonyl)imidazo [1,2-a]pyridin-7-yl)oxy)propan-2-ol] | 2.5 to 20 | > 1000 | > 80 | > 20
C[C@@H](O)COc1cc2ncc(-c3cc4cc[nH]c4nc3F)n2cc1S(=O)(=O)C(C)(C)C [Example 251, (R)-1-((6-(tert-butylsulfonyl)-3-(6-fluoro-1H-pyrrolo[2,3-b]pyridin-5-yl)imidazo[1,2-a]pyridin-7-yl)oxy)propan-2-ol] | < 1 | < 50 | > 80 | < 1
CCS(=O)(=O)Nc1cc(-c2cnc3cc(OC[C@@H](C)O)c(S(=O)(=O)C(C)(C)C)cn23)cc(F)c1OC [Example 252, (R)-N-(5-(6-(tert-butylsulfonyl)-7-(2-hydroxypropoxy)imidazo[1,2-a]pyridin-3-yl)-3-fluoro-2-methoxyphenyl) ethanesulfonamide] | < 1 | < 50 | > 80 | < 1
COc1c(F)cc(-c2cnc3cc(OC[C@@H](C)O)c(S(=O)(=O)C(C)(C)C)cn23)cc1NS(=O)(=O)c1cnn(C)c1 [Example 253, (R)-N-(5-(6-(tert-butylsulfonyl)-7-(2-hydroxypropoxy)imidazo [1,2-a]pyridin-3-yl)-3-fluoro-2-methoxyphenyl)-1-methyl-1H-pyrazole-4-sulfonamide] | 1 to 2.5 | < 50 | > 80 | < 1
C[C@@H](O)COc1cn2ncc(-c3cc(Cl)c(N)nc3F)c2cc1S(=O)(=O)C(C)(C)C [Example 254, (R)-1-((3-(6-amino-5-chloro-2-fluoropyridin-3-yl)-5-(tert-butylsulfonyl)pyrazolo [1,5-a]pyridin-6-yl)oxy)propan-2-ol] | 1 to 2.5 | 50 to 250 | > 80 | 1 to 2.5
COc1c(F)cc(-c2cnc3cc(OC[C@@H](C)O)c(S(=O)(=O)C(C)(C)C)cn23)cc1NS(C)(=O)=O [Example 255, (R)-N-(5-(6-(tert-butylsulfonyl)-7-(2-hydroxypropoxy)imidazo [1,2-a]pyridin-3-yl)-3-fluoro-2-methoxyphenyl) methanesulfonamide] | 1 to 2.5 | 50 to 250 | 55 to 80 | < 1
CC(C)(C)S(=O)(=O)c1cn2c(-c3cc(Cl)c(N)nc3F)cnc2cc1NCCO [Example 256, 2-((3-(6-amino-5-chloro-2-fluoropyridin-3-yl)-6-(tert-butylsulfonyl)imidazo [1,2-a]pyridin-7-yl)amino)ethan-1-ol] | 1 to 2.5 | < 50 | > 80 | < 1
CC(C)(C)S(=O)(=O)c1cn2c(-c3cc(Cl)c(N)nc3F)cnc2cc1CCCO [Example 257, 3-(3-(6-amino-5-chloro-2-fluoropyridin-3-yl)-6-(tert-butylsulfonyl)imidazo [1,2-a]pyridin-7-yl)propan-1-ol] | 2.5 to 20 | 250 to 1000 | > 80 | 2.5 to 20
C[C@H](CO)Oc1cc2ncc(-c3cc(Cl)c(N)nc3F)n2cc1S(=O)(=O)C(C)(C)C [Example 258, (R)-2-((3-(6-amino-5-chloro-2-fluoropyridin-3-yl)-6-(tert-butylsulfonyl)imidazo [1,2-a]pyridin-7-yl)oxy)propan-1-ol] | 2.5 to 20 | 250 to 1000 | > 80 | 2.5 to 20
C[C@@H](O)COc1cn2ncc(-c3cc(F)c(N)nc3F)c2cc1S(=O)(=O)C(C)(C)C [Example 259, (R)-1-((3-(6-amino-2,5-difluoropyridin-3-yl)-5-(tert-butylsulfonyl)pyrazolo [1,5-a]pyridin-6-yl)oxy)propan-2-ol] | 2.5 to 20 | 50 to 250 | > 80 | 1 to 2.5
COc1cc2ncc(-c3cc(F)c(OC)c(NS(=O)(=O)c4cnn(C)c4)c3)n2cc1C1(F)CCNCC1 [Example 276, N-(3-fluoro-5-(6-(4-fluoropiperidin-4-yl)-7-methoxyimidazo[1,2-a]pyridin-3-yl)-2-methoxyphenyl)-1-methyl-1H-pyrazole-4-sulfonamide] | 1 to 2.5 | 50 to 250 | > 80 | < 1
CC(C)(C)S(=O)(=O)c1cn2c(-c3cnc4[nH]ccc4n3)cnc2cc1OCCO [Example 277, 2-((6-(tert-butylsulfonyl)-3-(5H-pyrrolo[2,3-b]pyrazin-2-yl)imidazo[1,2-a]pyridin-7-yl)oxy)ethan-1-ol] | 2.5 to 20 | 250 to 1000 | < 30 | > 20
CC(C)(C)S(=O)(=O)c1cn2c(-c3ccc4[nH]ccc4n3)cnc2cc1OCCO [Example 278, 2-((6-(tert-butylsulfonyl)-3-(1H-pyrrolo[3,2-b]pyridin-5-yl)imidazo[1,2-a]pyridin-7-yl)oxy)ethan-1-ol] | > 20 | > 1000 | 30 to 55 | 2.5 to 20
COc1cc2ncc(-c3cc(F)c(OC)c(NS(=O)(=O)c4cn(C)nc4C)c3)n2cc1S(=O)(=O)C(C)(C)C [Example 279, N-(5-(6-(tert-butylsulfonyl)-7-methoxyimidazo[1,2-a]pyridin-3-yl)-3-fluoro-2-methoxyphenyl)-1,3-dimethyl-1H-pyrazole-4-sulfonamide] | < 1 | < 50 | > 80 | < 1
COc1cc2ncc(-c3cc(F)c(OC)c(NS(=O)(=O)c4cnn(C)c4C)c3)n2cc1S(=O)(=O)C(C)(C)C [Example 280, N-(5-(6-(tert-butylsulfonyl)-7-methoxyimidazo[1,2-a]pyridin-3-yl)-3-fluoro-2-methoxyphenyl)-1,5-dimethyl-1H-pyrazole-4-sulfonamide] | 1 to 2.5 | 50 to 250 | > 80 | 1 to 2.5
